SMILES strings stand for the structures. Counter-ions that a name gives are not always drawn.

Assay [1] deals with wildtype Wnt signaling cascade. In words: HEK293 TOP assay (Super TopFlash luciferase reporter, Wnt-3a stimulated). It is filed as cell-based. To be noted: Homo sapiens, HEK293 TOP reporter cells, Wnt3a at EC50, 16 hours. The procedure, abridged: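 HEK293 cells stably carrying Super TopFlash (TOP) run in parallel with FOP cells, 10000/well plated 24 h ahead, stimulated with recombinant human Wnt-3a. Compounds tested 50 μM to 15 nM in 3.16-fold steps in CAFTY buffer pH 7.4 with 2 mM Ca^2+ and 0.01% BSA; luciferase read-out.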

The target in a further assay is T1, TNKS1 (Homo sapiens, UniProt O95271).
T1 construct: purchased BPS Bioscience, San Diego, USA 80579 (TNKS1 Histone Ribosylation Assay Kit)
T1 sequence (O95271 1-1327): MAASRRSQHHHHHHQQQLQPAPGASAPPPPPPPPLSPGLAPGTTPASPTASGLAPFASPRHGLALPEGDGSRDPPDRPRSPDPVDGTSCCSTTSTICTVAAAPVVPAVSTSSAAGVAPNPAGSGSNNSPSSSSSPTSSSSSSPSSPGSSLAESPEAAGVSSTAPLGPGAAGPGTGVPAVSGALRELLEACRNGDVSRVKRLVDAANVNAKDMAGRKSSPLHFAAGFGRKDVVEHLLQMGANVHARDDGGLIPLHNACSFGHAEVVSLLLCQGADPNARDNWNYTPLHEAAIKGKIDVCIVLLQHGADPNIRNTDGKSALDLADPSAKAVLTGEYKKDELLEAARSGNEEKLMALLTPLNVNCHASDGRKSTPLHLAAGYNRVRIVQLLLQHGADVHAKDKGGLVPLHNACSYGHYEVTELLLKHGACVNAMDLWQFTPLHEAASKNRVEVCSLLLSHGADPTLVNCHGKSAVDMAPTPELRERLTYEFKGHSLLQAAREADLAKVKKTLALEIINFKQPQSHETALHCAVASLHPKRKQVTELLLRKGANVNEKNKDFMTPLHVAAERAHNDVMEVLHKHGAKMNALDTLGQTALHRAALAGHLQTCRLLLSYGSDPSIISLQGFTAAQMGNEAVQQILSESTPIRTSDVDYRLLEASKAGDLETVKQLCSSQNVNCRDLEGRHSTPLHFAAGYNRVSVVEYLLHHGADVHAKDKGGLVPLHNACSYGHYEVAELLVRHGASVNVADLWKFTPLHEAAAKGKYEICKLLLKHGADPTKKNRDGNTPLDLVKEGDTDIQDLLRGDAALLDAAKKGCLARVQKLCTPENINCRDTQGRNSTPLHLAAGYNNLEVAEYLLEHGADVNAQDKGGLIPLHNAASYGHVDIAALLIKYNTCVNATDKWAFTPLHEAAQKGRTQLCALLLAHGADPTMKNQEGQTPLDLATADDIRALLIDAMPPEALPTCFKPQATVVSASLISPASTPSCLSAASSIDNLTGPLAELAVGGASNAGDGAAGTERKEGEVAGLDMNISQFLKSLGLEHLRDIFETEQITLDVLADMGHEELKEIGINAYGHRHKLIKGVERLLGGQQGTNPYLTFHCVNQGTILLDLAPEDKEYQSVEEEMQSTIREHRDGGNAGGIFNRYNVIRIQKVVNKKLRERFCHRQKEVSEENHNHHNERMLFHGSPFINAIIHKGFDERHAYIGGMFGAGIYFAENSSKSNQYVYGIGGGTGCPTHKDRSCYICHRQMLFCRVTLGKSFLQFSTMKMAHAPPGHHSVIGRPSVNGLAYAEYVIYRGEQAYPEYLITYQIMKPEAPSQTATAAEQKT
Kind of assay: TNKS1 Assay B (auto-parsylation, [3H]-NAD+ SPA). The format is biochemical. As to conditions: 6 nM TNKS1, auto-parsylation, over night at room temperature.

Consider `COCC(C)NC(=O)c1nc[nH]c1C(=O)N[C@H]1CC[C@H](C(=O)Nc2cc(N3CCOCC3)ccc2Cl)CC1` (stereo partly drawn) [Example 91, N^5-(trans-4-{[2-chloro-5-(morpholin-4-yl)phenyl]carbamoyl}cyclohexyl)-N^4-(1-methoxypropan-2-yl)-1H-imidazole-4,5-dicarboxamide], for which the IC50 in assay [1] (HEK293, 16 h) is 1800 nM; at TNKS1 it was 2800 nM.
Consider `CNC(=O)c1[nH]cnc1C(=O)NC1CCC(C(=O)Nc2ccc(F)cc2Cl)CC1C` (racemic) [Example 39, N^4-{4-[(2-chloro-4-fluorophenyl)carbamoyl]-2-methylcyclohexyl}-N^5-methyl-1H-imidazole-4,5-dicarboxamide], for which the IC50 against TNKS1 worked out at 380 nM. This lies in the sub-micromolar range.
As for `Cc1c(C(C)N(C)C)cnc2c(C(=O)N[C@H]3CC[C@H](C(=O)Nc4ccc(F)cc4Cl)CC3)cnn12` (mixture of isomers) [Example 55, N-{trans-4-[(2-chloro-4-fluorophenyl)carbamoyl]cyclohexyl}-6-[1-(dimethylamino)ethyl]-7-methylpyrazolo[1,5-a]pyrimidine-3-carboxamide formic acid salt], the IC50 in assay [1] was determined as 280 nM; at TNKS1 it was 740 nM.
Take `O=C(NCCN1CCCCC1)c1nc[nH]c1C(=O)N[C@H]1CC[C@H](C(=O)Nc2ccc(F)cc2Cl)CC1` [Example 2, N^5-{trans-4-[(2-chloro-4-fluorophenyl)carbamoyl]cyclohexyl}-N^4-[2-(piperidin-1-yl)ethyl]-1H-imidazole-4,5-dicarboxamide]: the IC50 in assay [1] (HEK293, 16 h) came to 25 nM; on TNKS1, 550 nM.
With `CNC(C)c1cnc2c(C(=O)N[C@H]3CC[C@H](C(=O)Nc4ccc(F)cc4Cl)CC3)cnn2c1C` (stereo partly drawn) [Example 54, N-{trans-4-[(2-chloro-4-fluorophenyl)carbamoyl]cyclohexyl}-7-methyl-6-[1-(methylamino)ethyl]pyrazolo[1,5-a]pyrimidine-3-carboxamide formic acid salt], the IC50 is 620 nM in assay [1] and 460 nM against TNKS1.

The record behind these values is US20180148418A1, “AMIDO-SUBSTITUTED CYCLOHEXANE DERIVATIVES” (Bayer Pharma Aktiengesellschaft, priority 2015, published 2018).
